In patent publication US20260297136A1, “PEPTIDES WITH LIPOLYTIC, ANTI-LIPOGENIC, ANTIFIBROTIC AND ANTI-INFLAMMATORY ACTIVITY” (FUNDACIÓ HOSPITAL UNIVERSITARI VALL D'HEBRON - INSTITUT DE …, priority 2023, published 2026):

Legend:
HepG2 cells = test: Hepatic lipogenesis gene expression in HepG2 cells (24 h), Example 7; format: cell-based, human; conditions: 40 μg/ml, vs vehicle
Text: FIG. 32. Effect of GP6 and modified peptides on hepatic lipogenesis in HepG2 cells. Each bar within each group represents mRNA levels of a key hepatic lipogenic enzyme, from left to right: Acetyl-CoA Carboxylase (ACC), ATP Citrate Lyase (ACLY) and Fatty Acid Synthase (FAS), and a key transcription factor regulating several lipogenic enzymes such as PPARγ (PPARγ).
Cell culture reagents were from Life Technologies Inc (Invitrogen SA, Barcelona, Spain). HepG2 hepatoblastoma cells (cat. no. HB-8065; ATCC, LGC Standards SLU, Barcelona, Spain) were maintained in Dulbecco's modified Eagle medium (DMEM) supplemented with 10% fetal bovine serum and antibiotics.
• HepG2 cells were cultured for 5 day in the absence or presence of 30 mM fructose. Cells cultured in 30 mM fructose were daily treated with vehicle, Telmisartan, Semaglutide or EDL6D. • HepG2 cells were cultured for 24 h in the absence or presence of GP6 (40 μg/ml), GP10 (40 μg/ml), GP11 (40 μg/ml), GP12 (40 μg/ml), GP13 (40 μg/ml) or SHBG (20 nM). • HepG2 cells were cultured in the absence or presence of 30 mM fructose and treated for 2 h with vehicle or GP4 (40 μg/ml), GP6 (40 μg/ml), GP7 (40 μg/ml), GP8 (40 μg/ml), GP9 (40 μg/ml), GP10 (40 μg/ml), GP11 (40 μg/ml), GP12 (40 μg/ml), GP13 (40 μg/ml) or SHBG (20 nM).
(§1) Total RNA was extracted from HepG2 and LX-2 cells using TRIzol reagent (Invitrogen SA). Reverse transcription was performed at 42° C. for 50 minutes using […] of total RNA, 200 U of Superscript II, and an oligo-dT primer and reagents provided by Invitrogen. An aliquot of the reverse transcription product was amplified in a […] reaction using SYBRGreen (Invitrogen SA) with appropriate oligonucleotide primer pairs corresponding to human SHBG, ACC, FAS, ACLY, PPARG, and 18S and mouse ACC, FAS, ACLY, PPARG, Col1A1 and 18S. Results were analyzed using the 7000 Sequence Detection System program (Applied Biosystems, Thermo Fisher Scientific, Barcelona, Spain) (Shez-Lopez et al Endocrinology 2017).

LX-2 cells = test: Fibrosis in LX-2 cells: Col1A1 mRNA induced by TGFβ1, Example 7; format: cell-based, human; conditions: 24 h
Experimental: FIG. 33. Effect of different peptides and SHBG on fibrosis in LX-2 cells.
LX-2 human hepatic stellate cells (SCC064) were maintained in DMEM supplemented with 2% fetal bovine serum and antibiotics. For experiments, LX-2 were cultured for 24 h in DMEM 0.2% FBS and treated for 24 h with vehicle or TGFβ1 (20 ng/ml) in the absence or presence of EDL6D (10 or 40 μg/ml). At the end of the experiment's cells were harvested for gene expression analysis.
as §1

[1] = tested on: CCl4-induced fibrosis mouse model; test: Preventive effects in a CCl4-induced fibrosis mouse model, Example 5; format: in vivo, C57BL6/J male mice; conditions: 20 mg/kg/day sc, vs vehicle
Experimental: C57BL6/J male mice were purchased and kept for quarantine and acclimatization for a period of about 7 days before initiation of every experiment. Mice were housed in clean and sterilized mice cages and maintained in a controlled environment with 22+3° C. temperature, 50+20% humidity, a light/dark cycle of 12 hours each and 15-20 fresh air changes per hour.
Preventive effect of a daily subcutaneous injection of GP6 (20 mg/kg/day) in a mouse model of fibrosis induced by twice a week intraperitoneal injection of CCl4 (1 ml/Kg diluted in olive oil 1:5) during a 4 weeks period. A group of control mice (n=6) was treated with daily subcutaneous injections of vehicle (water) and the other group (n=10) with daily subcutaneous injection of GP6 (20 mg/kg/day) during 10 weeks.
At the end of the experiment mice were sacrificed, serum samples were extracted, tissues were weighted and part was fixed in paraformaldehyde for histology studies and part immediately frozen at −80 C for mRNA and protein expression studies.
The Histology studies, AST and ALT measurements as well the RNA analysis were performed as described in example 4.

Structure (SMILES): CC[C@@H](C)[C@@H](NC(=O)[C@H](NC(=O)CNC(=O)[C@@H](CCC(=O)O)NC(=O)[C@H]1CCCN1C(=O)[C@@H](CC(=O)O)NC(=O)[C@@H](Cc1c[nH]c2ccccc12)NC(=O)[C@H](NC(=O)[C@@H](CCCNC(=N)N)NC(=O)[C@H](NC(=O)[C@@H](CCC(=O)O)NC(=O)[C@@H](Cc1ccccc1)NC(=O)[C@@H](CO)NC(=O)[C@@H](CO)NC(=O)[C@@H](CO)NC(=O)[C@H](NC(=O)[C@@H](CCCCN)NC(=O)[C@H](N)[C@H](C)O)[C@H](C)O)C(C)C)[C@H](C)O)C(C)C)C(=O)N[C@H](Cc1ccccc1)C(=O)N[C@H](Cc1ccc(O)cc1)C(=O)O [GP6]
- ACC mRNA levels (HepG2 cells): reduced the mRNA levels
- ACLY mRNA levels (HepG2 cells): reduced the mRNA levels
- FAS mRNA levels (HepG2 cells): reduced the mRNA levels
- PPARγ mRNA levels (HepG2 cells): reduced the mRNA levels
- mRNA levels of collagen 1A1 induced by TGFβ1 (LX-2 cells): reduced the mRNA levels
- liver weight [1]: did not show any significance between groups
- reduction of ALT serum levels [1]: ~50%
- reduction of Collagen (Col1A1) expression in hepatic tissue [1]: more than 50%
- reduction of hepatic fibrosis (picrosirius staining, ImageJ) [1]: approximately 37%
- reduction of hepatic inflammation (F4/80 mRNA levels) [1]: more than 50%
- total body weight lost induced by CCl4 [1]: mice treated with vehicle lost more body weight when compared with GP6 treated mice
